The structures appear in SMILES notation. “And” between values parts separate entries of the source, which are not always exact repeats. Identical values can stand only once.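 Compound exposure: 48 hours, 5 concentrations, 96-well plates. GI50 is the concentration that inhibits growth by half. TGI marks complete inhibition of growth.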

The record followed here is PubChem BioAssay (NCI).

Test in all cases: growth of human tumour cells (NCI), 48 h
The test system of test [1] is KM12 colon.
In test [2] the test system is SK-MEL-28 melanoma.
For test [3], the system named is NCI-H522 lung.
Test [4] relates to ACHN renal.
Test [5] relates to UACC-257 melanoma.
The test system of test [6] is A549 NSCLC.
In test [7] the test system is MALME-3M melanoma.
Test [8] concerns HOP-92 NSCLC.
In test [9] the test system is HCT-116 colon.
Test [10] has as its system SF-539 CNS.
In test [11] the test system is OVCAR-5 ovarian.
Test [12] relates to IGROV1 ovarian.
Test [13] has as its system MOLT-4 leukemia.
Test [14] has as its system SK-OV-3 ovarian.

Regarding `COC(=O)CC(C(C(C)=O)C(=O)OCc1ccccc1)N1C(=O)OC(c2ccccc2)C1c1ccccc1` (stereo not given), the TGI in test [1] was above 100 µM; in test [2] it was above 100 µM; in test [3], 65.8 µM and > 100 µM; in test [4], above 100 µM; in [5] it was above 100 µM; in test [6], above 100 µM. In addition, the TGI in test [7], in test [8], in test [9], in test [10], in test [11] and in test [12] was above 100 µM in each case. Besides, the TGI in [13] and in [14] was above 100 µM throughout. Also, the GI50 was 23.6 µM and 55.3 µM in test [5]; 84.5 µM and 39.8 µM in [8]; 24.1 µM and > 100 µM in test [10]; > 100 µM and 34.3 µM in [11].
For `O=C(NCc1ccc2ccc3cccnc3c2n1)c1ccc[n+](Cc2ccccc2)c1`, the TGI in test [1], in test [2], in [3], in [4], in test [5] and in [6] was above 100 µM throughout. Further, the TGI in test [7], in test [8], in test [9], in test [10], in test [11] and in [12] was above 100 µM each time. In addition, the TGI in [13] and in test [14] was above 100 µM in each case.
Regarding `COC(=O)/C(=C/c1ccc(OC)cc1)C(C(=O)O)=C1CCCCC1`, the TGI in [1], in test [3], in [4], in [5], in test [6] and in test [8] was above 100 µM throughout. Besides, the TGI in [9], in test [10], in [11], in [12], in test [13] and in [14] was above 100 µM each time.
On to `C/C(O[Si](C(C)C)(C(C)C)C(C)C)=C(\C)C(=O)N(C)c1ccccc1Cl`, for which the TGI in [1], in [2], in test [3], in test [4], in [5] and in test [6] was above 100 µM each time. The TGI in test [7], in [8], in test [9], in [10], in test [11] and in [12] was above 100 µM throughout. In test [13], this molecule yielded a TGI above 100 µM.
For `CCCCCCCCCC(=O)NC(Cc1ccc(O)cc1)C(=O)NCCCNCCCCNCCCNC(=O)[C@@H](N)CCCN=C(N)N` (stereo not given in full), the TGI in test [1] was 61.5 µM; in [2], 43.8 µM; in [3], 69.7 µM; in [4] it was 67 µM; in test [5], above 100 µM; in test [6] it was above 100 µM. Moreover, the TGI in [7] was 39.7 µM; in test [9], above 100 µM; in test [10], 26.8 µM; in [12], 74.5 µM; in test [13], above 100 µM; in test [14], above 100 µM.
Regarding `O/N=C\C(=Nc1ccc(Cc2ccc(N=C(/C=N\O)NO)cc2)cc1)NO`, the TGI in test [1], in test [2], in test [3], in [4], in [5] and in [6] was above 100 µM each time. Further, the TGI in [7], in [8], in [9], in test [10], in [11] and in test [12] was above 100 µM throughout. Moreover, the TGI in test [13] and in test [14] was above 100 µM each time.
On to `COc1ccc(/C(Cl)=C(\C=O)c2ccc(Cl)cc2)cc1OC`, for which the TGI in [3] is 6.27 µM; in test [4] it was 13.1 µM; in test [5], 37.4 µM; in test [6], above 100 µM; in [7], above 100 µM; in test [9], 33.3 µM. Further, the TGI in [11] is above 100 µM; in test [12] it was 30.1 µM; in test [13], 6.62 µM; in [14], above 100 µM.
Consider `O=C(O)c1ccc(Nc2nc3nn(Cc4ccccc4)cc3c(=O)s2)cc1`, for which the TGI in test [1], in test [2], in [3], in test [4], in test [5] and in test [6] was above 100 µM each time. Besides, the TGI in [7], in test [8], in test [9], in [10], in test [11] and in test [12] was above 100 µM throughout. Besides, the TGI in [13] and in test [14] was above 100 µM in each case.
For `CC[n+]1c(/C=C/c2ccc(N(CCCl)CCCl)cc2)ccc2cc(I)ccc21`, the TGI in test [3] is 1.64 µM; in test [4], 9.37 µM; in [5], 2.61 µM; in test [6], 13.8 µM; in test [7], 2.93 µM; in [8], 2.13 µM. The TGI in test [10] was 2.4 µM; in [11], 7.77 µM; in test [12], 8.27 µM; in test [13], 3.03 µM; in [14] it was 6.42 µM.
Take `Cc1nc(Nc2ccc(Cl)c(Cl)c2)sc1C(=O)/C=C/c1ccc2c(c1)OCO2`: the TGI was 50 µM in test [1]; 86.9 µM in test [2]; 45.1 µM in test [4]; above 100 µM in test [5]; 48.5 µM in test [6]; above 100 µM in [7]. Besides, the TGI is 49.4 µM in test [9]; 61.7 µM in [10]; above 100 µM in test [11]; above 100 µM in test [12]; 44.1 µM in test [13]; 33.6 µM in test [14].
